Laboratory results from PubChem BioAssay AID328 (DTP/NCI, 2004).
Values joined by “and” are separate entries in the source; they are usually repeats but may differ in a detail not shown here. Equal values may be shown once. Inconclusive results and toxic doses are left out.

Test system: BDF1 mice, P388 leukemia ip, median survival T/C
Assay: NCI In Vivo Anticancer Drug Screen. Data for tumor model P388 Leukemia (intraperitoneal) in B6D2F1 (BDF1) mice
Conditions: endpoint: median survival time, higher = longer survival
Method in brief: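 Vehicle-dosed animals serve as the reference; survival of compound-dosed, tumour-implanted mice is divided by it.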

[1] = dose: 200.0 mg/kg/injection, schedule: Q01DX001 (ip), vehicle: saline
[2] = dose: 200.0 mg/kg/injection, schedule: Q01DX009 (ip), vehicle: saline
[3] = dose: 400.0 mg/kg/injection, schedule: Q01DX001 (ip), vehicle: saline
[4] = dose: 100.0 mg/kg/injection, schedule: Q04DX003 (ip), vehicle: Klucel (hydroxypropylcellulose) (HPC)
[5] = dose: 200.0 mg/kg/injection, schedule: Q04DX003 (ip), vehicle: Klucel (hydroxypropylcellulose) (HPC)
[6] = dose: 400.0 mg/kg/injection, schedule: Q04DX003 (ip), vehicle: Klucel (hydroxypropylcellulose) (HPC)
[7] = dose: 200.0 mg/kg/injection, schedule: Q01DX009 (ip), vehicle: saline with Tween-80
[8] = dose: 100.0 mg/kg/injection, schedule: Q04DX003 (ip), vehicle: saline with Tween-80
[9] = dose: 200.0 mg/kg/injection, schedule: Q04DX003 (ip), vehicle: saline with Tween-80
[10] = dose: 100.0 mg/kg/injection, schedule: Q04DX003 (ip), vehicle: saline
[11] = dose: 200.0 mg/kg/injection, schedule: Q04DX003 (ip), vehicle: saline
[12] = dose: 400.0 mg/kg/injection, schedule: Q04DX003 (ip), vehicle: saline
[13] = dose: 25.0 mg/kg/injection, schedule: Q01DX009 (ip), vehicle: saline with Tween-80
[14] = dose: 50.0 mg/kg/injection, schedule: Q01DX009 (ip), vehicle: saline with Tween-80
[15] = dose: 100.0 mg/kg/injection, schedule: Q01DX009 (ip), vehicle: saline with Tween-80
[16] = dose: 100.0 mg/kg/injection, schedule: Q01DX009 (ip), vehicle: saline
[17] = dose: 400.0 mg/kg/injection, schedule: Q04DX003 (ip), vehicle: saline with Tween-80
[18] = dose: 400.0 mg/kg/injection, schedule: Q01DX009 (ip), vehicle: saline with Tween-80
[19] = dose: 50.0 mg/kg/injection, schedule: Q01DX009 (ip), vehicle: saline

C/C=C/C(=O)OCC1CC[N+](C)([O-])C1 (stereo not drawn)
T/C [1]: 91 % of control
T/C [2]: 117 % of control
T/C [3]: 91 % of control
T/C (dose: 800.0 mg/kg/injection, schedule: Q01DX001 (ip), vehicle: saline): 100 % of control
T/C (dose: 800.0 mg/kg/injection, schedule: Q01DX009 (ip), vehicle: saline): 99 % of control
T/C (dose: 1600.0 mg/kg/injection, schedule: Q01DX001 (ip), vehicle: saline): 95 % of control

COc1cc(/C=C/C(=O)O)ccc1OC(C)=O
T/C (dose: 100.0 mg/kg/injection, schedule: Q01DX001 (ip), vehicle: saline): 100 % of control
T/C [1]: 100 % of control
T/C [3]: 100 % of control

COc1ccc(NC(=O)Oc2c(C(C)C)cccc2C(C)C)cc1
T/C [4]: 100 % of control
T/C [5]: 91 % of control
T/C [6]: 100 % of control

O=C(Nc1ccc2ccccc2c1)c1ccc(Cl)cc1Cl
T/C (dose: 75.0 mg/kg/injection, schedule: Q01DX001 (ip), vehicle: saline with Tween-80): 95 % of control
T/C (dose: 150.0 mg/kg/injection, schedule: Q01DX001 (ip), vehicle: saline with Tween-80): 86 % of control
T/C (dose: 300.0 mg/kg/injection, schedule: Q01DX001 (ip), vehicle: saline with Tween-80): 90 % of control

C[C@]12CC[C@H](OC(=O)Cc3ccc(N(CCCl)CCCl)cc3)CC1=CC[C@@H]1[C@@H]2CC[C@]2(C)C(=O)CC[C@@H]12
T/C (dose: 115.0 mg/kg/injection, schedule: Q04DX003 (ip), vehicle: saline with Tween-80): 113 % of control
T/C [7]: 215 % of control
T/C (dose: 400.0 mg/kg/injection, schedule: Q04DX003 (ip), vehicle: alcohol): 159 % of control
T/C (dose: 600.0 mg/kg/injection, schedule: Q04DX003 (ip), vehicle: alcohol): 272 % of control

c1cncc(-c2ncnc3c2Cc2ccccc2-3)c1
T/C (dose: 75.0 mg/kg/injection, schedule: Q01DX009 (ip), vehicle: Klucel (hydroxypropylcellulose) (HPC)): 100 % of control
T/C (dose: 150.0 mg/kg/injection, schedule: Q01DX009 (ip), vehicle: Klucel (hydroxypropylcellulose) (HPC)): 113 % of control

CCOC(=O)CCC(NC(=O)c1ccc(N(C=O)CCOC=O)cc1)C(=O)OCC (stereo not drawn)
T/C (dose: 50.0 mg/kg/injection, schedule: Q04DX003 (ip), vehicle: saline with Tween-80): 105 % of control
T/C [8]: 105 % of control
T/C [9]: 111 % of control

CS(=O)(=O)OCCN(CCOS(C)(=O)=O)c1ccc(N=O)cc1
T/C (dose: 0.5 mg/kg/injection, schedule: Q01DX010 (ip), vehicle: saline): 122 % of control
T/C (dose: 1.0 mg/kg/injection, schedule: Q01DX010 (ip), vehicle: saline): 104 % of control
T/C (dose: 2.0 mg/kg/injection, schedule: Q01DX010 (ip), vehicle: saline): 86 % of control and 113 % of control
T/C (dose: 62.5 micrograms/kg/injection, schedule: Q01DX010 (ip), vehicle: saline): 158 % of control
T/C (dose: 125.0 micrograms/kg/injection, schedule: Q01DX010 (ip), vehicle: saline): 166 % of control

CC(=O)Nc1cc(NC(C)=O)cc([N+](=O)[O-])c1
T/C (dose: 25.0 mg/kg/injection, schedule: Q04DX003 (ip), vehicle: saline): 110 % of control
T/C (dose: 50.0 mg/kg/injection, schedule: Q04DX003 (ip), vehicle: saline): 106 % of control
T/C [10]: 100 % of control
T/C [11]: 107 % of control
T/C [12]: 103 % of control

OCCOCC(F)(F)F
T/C [13]: 98 % of control
T/C [14]: 105 % of control
T/C [15]: 88 % of control and 108 % of control
T/C [16]: 122 % of control
T/C [8]: 100 % of control
T/C [10]: 100 % of control
T/C [2]: 122 % of control
T/C [9]: 123 % of control
T/C [11]: 100 % of control
T/C (dose: 400.0 mg/kg/injection, schedule: Q01DX009 (ip), vehicle: saline): 111 % of control
T/C [17]: 88 % of control
T/C [12]: 90 % of control

COc1ccc(-c2cc(C(=O)O)c3cc4ccccc4cc3n2)cc1Br
T/C [15]: 100 % of control
T/C [7]: 100 % of control
T/C [18]: 97 % of control
T/C (dose: 600.0 mg/kg/injection, schedule: Q01DX009 (ip), vehicle: saline with Tween-80): 109 % of control

N#Cc1c(Nc2cccc(Cl)c2)sc(C(=O)c2cc3cc(Cl)ccc3o2)c1N
T/C [14]: 109 % of control
T/C [15]: 100 % of control
T/C [7]: 93 % of control

COc1ccc2c(c1)CCC(CC(C)=O)C2=O (stereo not drawn)
T/C (dose: 100.0 mg/kg/injection, schedule: Q04DX003 (ip), vehicle: saline sonified): 104 % of control
T/C (dose: 200.0 mg/kg/injection, schedule: Q04DX003 (ip), vehicle: saline sonified): 104 % of control
T/C (dose: 400.0 mg/kg/injection, schedule: Q04DX003 (ip), vehicle: saline sonified): 104 % of control

Cc1ccc(C)c(-n2nnc3ccccc3c2=O)c1
T/C [15]: 100 % of control
T/C [8]: 100 % of control
T/C [7]: 86 % of control
T/C [9]: 90 % of control
T/C [18]: 100 % of control
T/C [17]: 100 % of control

N#CCC(=O)Cc1ccccc1[N+](=O)[O-]
T/C (dose: 400.0 mg/kg/injection, schedule: Q01DX001 (ip), vehicle: saline sonified): 100 % of control

CC(=O)OCC(=O)[C@@]1(O)CC[C@H]2[C@@H]3CCC4=CC(=O)CC[C@]4(C)[C@H]3[C@@H](O)C[C@@]21C
T/C (dose: 90.0 mg/kg/injection, schedule: Q01DX010 (sc), vehicle: steriod suspending solution): 100 % of control
T/C [15]: 100 % of control
T/C (dose: 130.0 mg/kg/injection, schedule: Q01DX010 (sc), vehicle: steriod suspending solution): 88 % of control
T/C [7]: 110 % of control
T/C [18]: 90 % of control

NN1N=Nc2cccc3cccc1c23
T/C [19]: 105 % of control
T/C [16]: 110 % of control
T/C (dose: 110.0 mg/kg/injection, schedule: Q04DX003 (ip), vehicle: saline): 100 % of control
T/C (dose: 170.0 mg/kg/injection, schedule: Q04DX003 (ip), vehicle: saline): 95 % of control
T/C [2]: 110 % of control
T/C (dose: 255.0 mg/kg/injection, schedule: Q04DX003 (ip), vehicle: saline): 95 % of control

O=S1(=O)CC(N2CCCCC2)C2=C(CCN(c3ccccc3)C2)O1 (stereo not drawn)
T/C (dose: 100.0 mg/kg/injection, schedule: Q04DX002 (ip), vehicle: saline with Tween-80): 112 % of control
T/C (dose: 200.0 mg/kg/injection, schedule: Q04DX002 (ip), vehicle: saline with Tween-80): 95 % of control
T/C (dose: 400.0 mg/kg/injection, schedule: Q04DX002 (ip), vehicle: saline with Tween-80): 98 % of control

COc1ccc2c(c[n+](C)c3c4cc5c(cc4ccc23)OCO5)c1OC
T/C (dose: 5.0 mg/kg/injection, schedule: Q01DX010 (ip), vehicle: saline): 90 % of control
T/C (dose: 10.0 mg/kg/injection, schedule: Q01DX010 (ip), vehicle: saline): 100 % of control

Cc1ccc(NS(=O)(=O)c2ccc(F)cc2)cc1C
T/C [4]: 109 % of control
T/C [5]: 109 % of control
T/C [6]: 104 % of control

CC(O)C(c1ccccc1)S(C)(=O)=O (stereo not drawn)
T/C [4]: 95 % of control
T/C [5]: 104 % of control
T/C [6]: 91 % of control

Cc1c(NS(=O)(=O)c2ccccc2)c(C)c(NS(=O)(=O)c2ccccc2)c(C)c1NS(=O)(=O)c1ccccc1
T/C [14]: 88 % of control
T/C [15]: 91 % of control
T/C [7]: 88 % of control

Clc1ccc(NC2=NCCN=C(Nc3ccc(Cl)c(Cl)c3)SS2)cc1Cl
T/C (dose: 50.0 mg/kg/injection, schedule: Q01DX009 (ip), vehicle: Klucel (hydroxypropylcellulose) (HPC)): 100 % of control
T/C (dose: 100.0 mg/kg/injection, schedule: Q01DX009 (ip), vehicle: Klucel (hydroxypropylcellulose) (HPC)): 92 % of control
T/C (dose: 200.0 mg/kg/injection, schedule: Q01DX009 (ip), vehicle: Klucel (hydroxypropylcellulose) (HPC)): 88 % of control

C[n+]1c2ccccc2cc2ccccc21
T/C [13]: 118 % of control

CC(C)CSC(C)C
T/C (dose: 25.0 mg/kg/injection, schedule: Q01DX009 (ip), vehicle: saline): 110 % of control
T/C [19]: 110 % of control
T/C [16]: 110 % of control

Clc1c(CBr)c(Cl)c(CBr)c(Cl)c1CBr
T/C (dose: 12.5 mg/kg/injection, schedule: Q01DX009 (ip), vehicle: Klucel (hydroxypropylcellulose) (HPC)): 113 % of control
T/C (dose: 25.0 mg/kg/injection, schedule: Q01DX009 (ip), vehicle: Klucel (hydroxypropylcellulose) (HPC)): 122 % of control

O=C(c1ccco1)C1Cc2ccccc2C1=O (stereo not drawn)
T/C [15]: 116 % of control
T/C [8]: 91 % of control
T/C [7]: 104 % of control
T/C [9]: 104 % of control
T/C [18]: 100 % of control
T/C [17]: 108 % of control
